Patent US20240217990A1 (Gilead Sciences, Inc., priority 2021, published 2024)

Key:
[1] = molecular target: T1, TLR7 (Homo sapiens, UniProt Q9NYK1); assay: TLR7 human PBMC cell-based assay (antagonist, GS-986 stimulated cytokine release); settings: human PBMCs; TLR7 agonist GS-986 400 nM, 6 hours; cytokines (IL-6 and IFNα) in supernatant; read-out: TLR-7 EC50
T1 construct: Human peripheral blood mononuclear cells (PBMCs) consist of lymphocytes, monocytes and dendritic cells that express TLR7, TLR8 and TLR9; endogenous in cells; host or cells: cryopreserved human PBMCs from healthy donors
T1 sequence (Q9NYK1 27-1049): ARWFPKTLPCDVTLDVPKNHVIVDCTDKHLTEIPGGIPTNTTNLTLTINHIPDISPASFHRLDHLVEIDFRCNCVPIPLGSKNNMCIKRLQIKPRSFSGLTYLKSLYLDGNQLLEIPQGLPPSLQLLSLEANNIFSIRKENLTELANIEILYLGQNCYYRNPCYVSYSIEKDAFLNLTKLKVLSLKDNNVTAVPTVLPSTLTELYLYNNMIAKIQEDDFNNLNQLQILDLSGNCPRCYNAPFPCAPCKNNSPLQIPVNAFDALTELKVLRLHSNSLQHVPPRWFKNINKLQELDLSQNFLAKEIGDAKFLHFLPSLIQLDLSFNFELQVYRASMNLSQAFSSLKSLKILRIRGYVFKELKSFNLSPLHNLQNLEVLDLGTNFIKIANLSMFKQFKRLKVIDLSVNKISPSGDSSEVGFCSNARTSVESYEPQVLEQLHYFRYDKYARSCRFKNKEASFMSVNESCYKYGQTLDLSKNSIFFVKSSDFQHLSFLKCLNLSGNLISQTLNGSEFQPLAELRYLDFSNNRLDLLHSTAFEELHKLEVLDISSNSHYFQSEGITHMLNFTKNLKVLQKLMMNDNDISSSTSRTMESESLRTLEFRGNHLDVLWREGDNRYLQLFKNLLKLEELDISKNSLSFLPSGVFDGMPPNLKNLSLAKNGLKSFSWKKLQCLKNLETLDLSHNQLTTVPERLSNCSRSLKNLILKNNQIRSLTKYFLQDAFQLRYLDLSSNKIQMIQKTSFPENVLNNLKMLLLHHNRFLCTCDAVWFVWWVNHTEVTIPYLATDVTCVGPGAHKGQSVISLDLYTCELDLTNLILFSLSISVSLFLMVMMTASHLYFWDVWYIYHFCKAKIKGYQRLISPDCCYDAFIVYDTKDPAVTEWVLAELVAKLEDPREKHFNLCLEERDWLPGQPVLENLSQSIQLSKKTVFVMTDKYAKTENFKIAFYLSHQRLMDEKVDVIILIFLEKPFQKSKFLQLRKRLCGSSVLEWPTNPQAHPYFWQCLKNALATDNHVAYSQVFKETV
Method in brief: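 Cryopreserved healthy-donor PBMCs (100,000/well, RPMI-1640 + 10% FBS) pre-incubated 1 h at 37 °C with antagonist (10-point dose response, quadruplicate), then stimulated 6 h with GS-986 at 400 nM final. Supernatant IL-6 and IFNα measured by electrochemiluminescence immunoassay; EC50 from sigmoidal fit.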

[2] = molecular target: T2, TLR8 (Homo sapiens, UniProt Q9NR97); assay: TLR8 human PBMC cell-based assay (antagonist, Compound A stimulated cytokine release); settings: human PBMCs; TLR8 agonist Compound A 800 nM, 6 hours; cytokines (TNFa and IL 12p40) in supernatant; read-out: TLR-8 EC50
T2 construct: Human peripheral blood mononuclear cells (PBMCs) consist of lymphocytes, monocytes and dendritic cells that express TLR7, TLR8 and TLR9; endogenous in cells; host or cells: cryopreserved human PBMCs from healthy donors
T2 sequence (Q9NR97 27-1041): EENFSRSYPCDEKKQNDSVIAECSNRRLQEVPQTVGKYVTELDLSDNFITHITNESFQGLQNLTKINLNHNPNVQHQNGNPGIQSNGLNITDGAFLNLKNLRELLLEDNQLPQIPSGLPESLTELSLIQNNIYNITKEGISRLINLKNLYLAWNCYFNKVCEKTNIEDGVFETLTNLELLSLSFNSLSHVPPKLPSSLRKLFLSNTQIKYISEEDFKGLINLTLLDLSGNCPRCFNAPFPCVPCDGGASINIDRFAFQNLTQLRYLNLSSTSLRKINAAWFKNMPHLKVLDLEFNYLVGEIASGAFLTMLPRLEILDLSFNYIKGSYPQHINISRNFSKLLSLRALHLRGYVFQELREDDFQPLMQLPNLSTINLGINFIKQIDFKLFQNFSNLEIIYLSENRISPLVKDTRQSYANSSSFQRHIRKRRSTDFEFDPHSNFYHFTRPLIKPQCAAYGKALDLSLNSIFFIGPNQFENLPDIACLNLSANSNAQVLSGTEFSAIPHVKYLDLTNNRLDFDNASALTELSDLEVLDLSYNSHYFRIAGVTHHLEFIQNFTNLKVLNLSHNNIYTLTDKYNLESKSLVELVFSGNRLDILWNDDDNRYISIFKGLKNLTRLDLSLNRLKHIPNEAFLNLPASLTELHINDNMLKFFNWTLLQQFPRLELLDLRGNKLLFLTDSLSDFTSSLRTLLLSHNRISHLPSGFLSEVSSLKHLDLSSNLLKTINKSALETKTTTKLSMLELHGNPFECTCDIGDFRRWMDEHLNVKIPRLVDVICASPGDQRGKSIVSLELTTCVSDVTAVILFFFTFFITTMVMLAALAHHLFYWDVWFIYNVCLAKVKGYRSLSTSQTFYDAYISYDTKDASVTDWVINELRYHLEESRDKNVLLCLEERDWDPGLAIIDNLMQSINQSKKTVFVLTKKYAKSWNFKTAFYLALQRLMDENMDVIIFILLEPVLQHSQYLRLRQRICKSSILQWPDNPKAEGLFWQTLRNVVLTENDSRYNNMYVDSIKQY
Method in brief: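 Cryopreserved donor PBMCs (100,000/well, RPMI + 10% FBS) were preincubated 1 h with antagonist (10-point dose response, quadruplicate), then stimulated with Compound A (800 nM final) for 6 h at 37 °C. TNFa and IL-12p40 in supernatants were measured by electrochemiluminescence; sigmoidal fits gave EC50.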

Compound	EC50 [1] [nM]	EC50 [2] [nM]
Cc1cc(-c2[nH]c3cc(C4CCC5(CC4)CN(C(=O)[C@H]4COCCN4)C5)sc3c2C(C)C)cn2ncnc12 [Example 284]	0.23	14.2
Cc1cc(-c2[nH]c3cc(C4CCC5(CC4)CN(C(=O)[C@@H]4COCCN4)C5)sc3c2C(C)C)cn2ncnc12 [Example 285]	0.34	15.2
Cc1c(-c2[nH]c3cc(C4CCN(CC(N)=O)CC4)sc3c2C(C)C)ccc2nn(C)c(=O)n12 [Example 286]	> 1000	172
Cc1cc(-c2[nH]c3cc(C4CCC5CN(CC(N)=O)CCC5C4)sc3c2C(C)C)cn2ncnc12 (centres unmarked) [Example 287]	0.56	5.31
Cc1cc(-c2[nH]c3cc(C4CC5CCC4CN5CC(N)=O)sc3c2C(C)C)cn2ncnc12 (centres unmarked) [Example 288]	0.76	6.45
Cc1cc(-c2[nH]c3cc(C4CC5CN(CC(N)=O)CC5C4)sc3c2C(C)C)cn2ncnc12 (centres unmarked) [Example 289]	0.19	5.93
Cc1cc(-c2[nH]c3cc(C4CCC5(CC4)CCN(CC(N)=O)CC5)sc3c2C(C)C)cn2ncnc12 [Example 290]	0.43	17.9
Cc1cc(-c2[nH]c3cc(C4CCN(C(=O)[C@@H]5COCCN5)CC4)sc3c2C(C)C)cn2ncnc12 [Example 291]	0.37	6.11
Cc1cc(-c2[nH]c3cc(C4CCN(C(=O)[C@H]5COCCN5)CC4)sc3c2C(C)C)cn2ncnc12 [Example 292]	0.3	7.93
Cc1cc(-c2[nH]c3cc(C4CCNCC4(C)C)sc3c2C(C)C)cn2ncnc12 (centres unmarked) [Example 293]	0.82	5.56
Cc1cc(-c2[nH]c3cc(C4CC(C)(C)NC(C)(C)C4)sc3c2C(C)C)cn2ncnc12 [Example 294]	49.5	19.5
Cc1cc(-c2[nH]c3cc(C4CCNC5(CCC5)C4)sc3c2C(C)C)cn2ncnc12 (centres unmarked) [Example 296]	3.76	8.2
Cc1cc(-c2[nH]c3cc(C4CC5CCCC(C4)N5)sc3c2C(C)C)cn2ncnc12 (centres unmarked) [Example 297]	2.74	19.5
Cc1cc(-c2[nH]c3cc(C4CCN(CC(N)=O)CC4(C)C)sc3c2C(C)C)cn2ncnc12 (centres unmarked) [Example 298]	4.02	17.7
Cc1cc(-c2[nH]c3cc(C4CC5CCC(C4)N5CC(N)=O)sc3c2C(C)C)cn2ncnc12 (centres unmarked) [Example 299]	0.56	10.4
Cc1cc(-c2[nH]c3cc(C4CCC(C(=O)N5CCNCC5)CC4)sc3c2C(C)C)cn2ncnc12 (centres unmarked) [Example 300]	0.31	11.2
Cc1cc(-c2[nH]c3cc(C4CCN(CC(N)=O)C5(CCC5)C4)sc3c2C(C)C)cn2ncnc12 (centres unmarked) [Example 301]	52	217
Cc1cc(-c2[nH]c3cc(C4CC5CCCC(C4)N5CC(N)=O)sc3c2C(C)C)cn2ncnc12 (centres unmarked) [Example 302]	11.9	54
Cc1cc(-c2[nH]c3cc(C4CC4C(=O)N4CCNCC4)sc3c2C(C)C)cn2ncnc12 (centres unmarked) [Example 303]	0.44	3.52
Cc1cc(-c2[nH]c3cc(C4CC5(CCN(CC(N)=O)CC5)C4)sc3c2C(C)C)cn2ncnc12 [Example 304]	0.5	2.06
CC(C)c1c(-c2cc(C(F)(F)F)c3ncnn3c2)[nH]c2cc(C(=O)N3CCNCC3)sc12 [Example 305]	2.36	5.14
Cc1cc(-c2[nH]c3cc(C4CC4C(=O)N4CCN(CCO)CC4)sc3c2C(C)C)cn2ncnc12 (centres unmarked) [Example 306]	22.7	25
Cc1cc(-c2[nH]c3cc([C@@H]4C[C@H]5CC[C@@H](C4)N5)sc3c2C(C)C)cn2ncnc12 [Example 307, 2-((1R,3s,5S)-8-azabicyclo[3.2.1]octan-3-yl)-6-isopropyl-5-(8-methyl-[1,2,4]triazolo[1,5-a]pyridin-6-yl)-4H-thieno[3,2-b]pyrrole]	0.09	7.49
Cc1cc(-c2[nH]c3cc(C4CC5(CCNCC5)C4)sc3c2C(C)C)cn2ncnc12 [Example 308]	0.28	3.46
Cc1cc(-c2[nH]c3cc(C4C5CCC4CN(CC(N)=O)C5)sc3c2C(C)C)cn2ncnc12 (centres unmarked) [Example 309, 2-(8-(6-isopropyl-5-(8-methyl-[1,2,4]triazolo[1,5-a]pyridin-6-yl)-4H-thieno[3,2-b]pyrrol-2-yl)-3-azabicyclo[3.2.1]octan-3-yl)acetamide]	0.95	17.1
